Experimental data reported in patent publication US4879390A, “Delta-butyrolactams, thereof, processes for the preparation thereof and their medical use” (priority 1984, dated 1989).

Tests used:
[1] = system: pentobarbital sleeping time; experiment: Effect on barbiturates sleeping time in mice (pentobarbital); type: in vivo, male Kunming strain mice; conditions: 250 mg/kg; for Sleeping time (X ± SE): 10 per group, control 71 ± 7, P <0.01
Procedure: (§1) Male Kunming strain mice weighing 18-22 grams were used throughout the experiments. The compounds to be tested were suspended in 5% Tween 80 and given orally by gavage. The vehicle of 5% Tween 80 solution was administered to control mice via the same route. In in vitro experiments, the compounds were dissolved in dimethylformamide and added directly into the incubation mixture.
(§2) In another experiment, mice were given a dose of 250 mg/kg of Clausenamide. Sodium pentobarbital (50 mg/kg) was injected ip 1 and 24 h after administration of the compounds. The sleeping time was estimated by recording the interval of disappearance and recovery of righting reflex. […] This means that the prolongation of pentobarbital sleeping time by Clausenamide was due to the inhibition of liver drug metabolism enzyme.

[2] = system: serum and liver transaminase (GPT); experiment: Effect on serum and liver transaminase (GPT) levels of normal mice; type: in vivo, male Kunming strain mice
Procedure: as §1
Two groups of mice were administered the vehicle or 250 mg/kg of Clausenamide once daily for 7 consecutive days, respectively. The serum and liver GPT were determined 24 h after the last dose administration.

[3] = system: CCl4 intoxicated mice; experiment: Hepato-protective action: SGPT of CCl4 intoxicated mice; type: in vivo, male Kunming strain mice; conditions: two oral doses of 250 mg/kg
Procedure: as §1
(§3) The parameters adopted for hepatotoxicity included serum transaminase (SGPT), liver triglycerides, and pathological examination of liver tissues. The liver lesions were scored mainly by the extent of inflammation and necrosis and graded from 0 to 4.
(§4) (a) Hepato-protective action

[4] = Induction of hepatic microsomal cytochrome P-450: liver weight and microsomal protein; type: in vivo, male Kunming strain mice; conditions: 250 mg/kg/day × 3; 6 per group; control 4.0 ± 0.2
Procedure: as §1
(§5) The liver microsomal cytochrome P-450 plays a key role in the detoxification of xenobiotics. Mice were administered 250 mg/kg of Clausenamide once daily for 3 days. The control mice received the vehicle. The mice were killed after fasting overnight. Liver microsomes were prepared and microsomal monooxygenases were determined.

[5] = system: CCl4 hepatotoxicity in mice; experiment: Therapeutic effect on CCl4 hepatotoxicity in mice; type: in vivo, male Kunming strain mice
Procedure: as §1, §3
In another experiment, mice were first injected […] of 0.15% CCl4 in vegetable oil every other day for 3 doses. Treatment of the mice with Clausenamide (250 mg/kg daily) started from the second to fifth day after the first injection of CCl4. The determination of SGPT and pathological examination of liver tissues were performed on day 7 of the experiment.

[6] = system: barbital sleeping time; experiment: Effect on barbiturates sleeping time in mice (barbital); type: in vivo, male Kunming strain mice
Procedure: as §1
as §2, with “Sodium pentobarbital (50 mg/kg) was injected ip 1 and 24 h after administration of the compounds.” left out

[7] = system: Aminopyrine demethylase; experiment: Induction of hepatic microsomal enzymes: aminopyrine demethylase; type: in vivo, male Kunming strain mice
Procedure: as §1, §5

[8] = system: mice; experiment: Acute toxicity test; type: in vivo; conditions: single oral dose of 3 grams/kg, 10 mice
Procedure: as §1

[9] = system: thioacetamide hepatotoxicity in mice; experiment: Protective action against thioacetamide hepatotoxicity in mice; type: in vivo, male Kunming strain mice; conditions: thioacetamide 50 mg/kg
Procedure: as §1, §3, §4
In the experiment of thioacetamide hepatotoxicity, mice were treated according to the procedure of the first experiment except that thioacetamide (50 mg/kg) was used instead of CCl4.

[10] = system: NADPH-cytochrome c reductase; experiment: Induction of hepatic microsomal enzymes: NADPH-cytochrome c reductase; type: in vivo, male Kunming strain mice
Procedure: as §1, §5

[11] = system: hypoxia tolerance (mouse); experiment: Increase of hypoxia tolerance (mouse); type: in vivo, male mice; conditions: for surviving/total animals: 30 min before test, 3.5% oxygen, control 9/60
Procedure: Collectives of male mice (20 g body weight) are placed in a plastic box divided into two chambers (size of the box: 15×28×40 cm corresponding to a volume of 16.8 l per bos). 20 mice are placed in each chamber. The box is perfused with a gas mixture containing 3.5% oxygen and 96.5% nitrogen. The perfusion volume is 4 l/min. The test substance and vehicle are administered orally 30 min before the test.
About 7 min after onset of perfusion with the hypoxic mixture animals die. The experiment is stopped when in the left hand chamber (control collective) three animals only show signs of respiration. The box is opened and the number of animals of the treated group still alive is counted.
The difference between the survived animals in both groups is evaluated using the X^2 test according to Fisher and Yates (1963) (Thomann et al. 1975).

[12] = system: Cytochrome b5; experiment: Induction of hepatic microsomal enzymes: cytochrome b5; type: in vivo, male Kunming strain mice
Procedure: as §1, §5

[13] = system: retrograde amnesia (rat); experiment: Retrograde amnesia (rat) under hypoxic conditions; type: in vivo, male rats; conditions: time to enter dark compartment 24 h after hypoxia
Procedure: The apparatus (39 cm long, 21 cm high, and 21 cm wide) consists of two compartments, one made of translucent plastic (29 cm long) and the other one painted black (10 cm long). It has a bottom of spaced metal grids which are connected to a stimulating device delivering 1.6 mA for 20 s.
Both compartments are connected via a door which can be closed.
Male rats (100-120 g body weight) will be placed individually in the large compartment and allowed to explore both compartments for 3 min.
Thereafter the animals are placed in the small (dark) compartment, the connecting door is closed and the foot shock is delivered. After that the animals are put in an air-tight cage which is perfused by a gas mixture containing 3.8% oxygen and 96.2 % nitrogen.
24 hours later the rats are placed again in the bright compartment. The observation time is 3 min.
One experiment is performed in three groups of 15 animals each:
Group A: control group, not exposed to hypoxia
Group B: control group, receiving hypoxia after first training
Group C: treated animals, receiving hypoxia after first training.
Evaluation: the times the animals need to enter the dark compartment are measured in seconds.
The time difference between the two control groups is considered to be 100% (A-B=100%).
The time difference between the control group B and the treated group C is calculated in percent (C-B=X%). X is considered to be a measure for the potency of the antiamnestic effect of the substance tested.

[14] = system: CCl4 hepatotoxicity in mice; experiment: Protective action of Clausenamide against CCl4 hepatotoxicity in mice; type: in vivo, male Kunming strain mice; conditions: for Liver lipids (X ± SE): control 21.0 ± 4.2; for SGPT (X ± SE): nine mice per group, control 3016 ± 23
Procedure: as §1, §3, §4
The procedure of experiment of anti-CCl4 hepatotoxicity was the same as described above. The dosages of the active compound used were 125 and 250 mg/kg. […] Liver lipids were not decreased.

[15] = system: benzo(a)pyrene hydroxylase (AHH); experiment: Induction of hepatic microsomal enzymes: benzo(a)pyrene hydroxylase (AHH); type: in vivo, male Kunming strain mice
Procedure: as §1, §5

[16] = Solubility; type: physicochemical
[17] = system: acetaminophen hepatotoxicity in mice; experiment: Protective action against acetaminophen hepatotoxicity in mice; type: in vivo, male Kunming strain mice; conditions: 250 mg/kg × 3
Procedure: as §1, §3
The experiment of anti-acetaminophen hepatotoxicity was performed in the following way. Mice were administered two doses (250 mg/kg) of Clausenamide on the first day followed by the same dose on the second day. A dose of 150 mg/kg of acetaminophen was injected ip 6 h after the last dose of the compound. SGPT was determined and liver tissues were examined 20 h after acetaminophen injection.

[18] = system: hepatic microsomal cytochrome P-450; experiment: Induction of hepatic microsomal cytochrome P-450; type: in vivo, male Kunming strain mice
Procedure: as §1, §5

[19] = 250 mg/kg once daily for 3 days

Structure (SMILES): CN1C(=O)[C@@H](O)[C@H](c2ccccc2)[C@@H]1[C@@H](O)c1ccccc1 (relative stereo) [Clausenamide]
- Sleeping time (X ± SE) ([1]; 1 h before pentobarbital 50 mg/kg): 152 ± 17 min
- Pentobarbital sleeping time, in words ([1]; 1 h prior to pentobarbital): prolonged markedly
- Pentobarbital sleeping time, in words ([1]; 24 h before pentobarbital): shortened significantly
- Sleeping time (X ± SE) ([1]; 24 h before pentobarbital 50 mg/kg): 46 ± 6 min
- SGPT level of normal mice, in words ([2]; 250 mg/kg once daily for 7 days): slightly higher than that of the control, but the difference was not significant
- SGPT (X ± SE) ([2]; normal mice, 250 mg/kg/day × 7, eight mice per group, control 217 ± 7.5, P > 0.05): 252 ± 22.1 unit %
- LGPT (X ± SE) ([2]; normal mice, 250 mg/kg/day × 7, eight mice per group, control 260 ± 11.6, P > 0.05): 292 ± 8.0 unit/100 mg
- SGPT (X ± SE) ([3]; CCl4 intoxicated mice, 8 h apart, 9 per group, control 1678 ± 261): 617 ± 323 unit %
- SGPT levels of CCl4-intoxicated mice, in words [3]: significantly decreased SGPT levels
- Liver weight [4]: 5.4 ± 0.2 g %
- SGPT lowering, in words ([5]; 250 mg/kg daily, second to fifth day after first CCl4 injection): significant SGPT lowering action
- Liver lesions, in words ([5]; 250 mg/kg daily, second to fifth day after first CCl4 injection, day 7): no effect on liver lesions
- SGPT (X ± SE) ([5]; 250 mg/kg/day × 4, started after first CCl4 injection, 8 mice, control 2695 ± 110, P <0.01): 1718 ± 224 unit %
- Sleeping time (X ± SE) ([6]; 250 mg/kg, 1 h before barbital 200 mg/kg, 10 per group, control 197 ± 27, P >0.05): 172 ± 13 min
- Barbital sleeping time, in words ([6]; prior administration of the compound): did not affect sleeping time
- Aminopyrine demethylase, in words [7, 19]: increased significantly
- Aminopyrine demethylase ([7]; 250 mg/kg/day × 3, 6 per group, control 81 ± 6.3): 126 ± 5.2 nmol HCHO/min protein
- Death in 7 days [8]: did not cause death
- Liver lipids (X ± SE) ([9]; 250 mg/kg × 2, control 61 ± 11.7): 39 ± 3.9 mg/g
- SGPT (X ± SE) ([9]; 250 mg/kg × 2, nine mice per group, control 1696 ± 231, P < 0.01): 718 ± 229 unit %
- SGPT levels, in words [9]: markedly lowered the SGPT levels
- NADPH-cytochrome c reductase, in words [10, 19]: increased significantly
- NADPH-cytochrome c reductase ([10]; 250 mg/kg/day × 3, 6 per group, control 103 ± 2.5): 117 ± 2.5 nmol cytochrome c reduced/min/
- effect ([11]; 10 mg/kg p.o.): 19.6%
- surviving/total animals ([11]; 10 mg/kg p.o.): 19/60
- effect ([11]; 30 mg/kg p.o.): 41.1%
- surviving/total animals ([11]; 30 mg/kg p.o.): 31/60
- effect ([11]; 100 mg/kg p.o.): 58.8%
- increase in the survival rate ([11]; 100 mg/kg p.o.): 59%
- surviving/total animals ([11]; 100 mg/kg p.o.): 40/60
- hypoxia tolerance, in words ([11]; 10 to 100 mg/kg p.o.): significantly increased
- Cytochrome b5, in words [12, 19]: increased significantly
- Cytochrome b5 ([12]; 250 mg/kg/day × 3, 6 per group, control 0.15 ± 0.01): 0.19 ± 0.01 nmol/mg protein
- X (antiamnestic effect, C-B as percent of A-B) ([13]; 3 mg/kg p.o.): 47%
- X (antiamnestic effect, C-B as percent of A-B) ([13]; 10 mg/kg p.o.): 65%
- X (antiamnestic effect, C-B as percent of A-B) ([13]; 30 mg/kg p.o.): 100%
- Liver lipids (X ± SE) ([14]; 125 mg/kg × 2, CCl4): 21.6 ± 4.4 mg/g liver
- SGPT (X ± SE) ([14]; 125 mg/kg × 2, CCl4, P < 0.05): 2365 ± 245 unit %
- Liver lipids (X ± SE) ([14]; 250 mg/kg × 2, CCl4): 13.4 ± 3.0 mg/g liver
- Liver lesions: Inflammation grade ([14]; 250 mg/kg × 2, CCl4, graded from 0 to 4, control 1.70): 0.38 grade
- Liver lesions: Necrosis grade ([14]; 250 mg/kg × 2, CCl4, graded from 0 to 4, control 2.33): 1.33 grade
- SGPT (X ± SE) ([14]; 250 mg/kg × 2, CCl4, p < 0.01): 1900 ± 257 unit %
- Liver injuries such as inflammation and necrosis, in words ([14]; 250 mg/kg, CCl4): less severe than those of the control
- Elevation of SGPT induced by CCl4, in words ([14]; 125 and 250 mg/kg): significantly depressed the elevation of SGPT
- Liver lipids, in words ([14]; CCl4): not decreased
- Benzo(a)pyrene hydroxylase activity, in words [15, 19]: increased significantly
- AHH ([15]; 250 mg/kg/day × 3, 6 per group, control 2.6 ± 0.4): 5.7 ± 0.76 nmol/min/mg protein
- solubility in common organic solvents ([16]; CHCl3, CH2Cl2, ether, ethyl acetate, etc.): only slightly soluble
- solubility in hot methanol, DMSO and DMF ([16]; hot methanol, DMSO and DMF): soluble
- Hepatic injuries, in words ([17]; acetaminophen 150 mg/kg ip): markedly decreased SGPT levels and hepatic injuries
- SGPT levels, in words ([17]; acetaminophen 150 mg/kg ip): markedly decreased SGPT levels
- Liver lipids ([17]; acetaminophen 150 mg/kg ip, control 79 ± 13): 82 ± 17 mg/g
- SGPT ([17]; acetaminophen 150 mg/kg ip, nine mice per group, control 2778 ± 270, P < 0.01): 697 ± 163 unit %
- Liver inflammation (grade) ([17]; acetaminophen, graded from 0 to 4, control 0.5): 0.1 grade
- Liver necrosis (grade) ([17]; acetaminophen, graded from 0 to 4, control 1.4): 0 grade
- Hepatic cytochrome P-450, in words [18, 19]: increased significantly
- Cytochrome P-450 ([18]; 250 mg/kg/day × 3, 6 per group, control 0.87 ± 0.07): 1.14 ± 0.07 nmol/mg protein
- Action on hepatic microsomal cytochrome P-450 (concluded from sleeping time and enzyme data) ([18]; 250 mg/kg, biphasic): inhibition and followed by induction
